From PMC10938783, “A novel pan-PI3K inhibitor KTC1101 synergizes with anti-PD-1 therapy by targeting tumor suppression and immune activation” (Molecular Cancer, 2024)

What was measured:
S24 tumors = assay: S24 syngeneic model in C57BL/6 mice; format: in vivo, mouse; conditions: S24 in WT C57BL/6 mice, 100 mg/kg daily oral gavage
Experimental: To generate syngeneic mouse models, S24 and B16 cells were subcutaneously injected into the right lateral flank of 4- to 5-week-old male C57BL/6 mice. Tumors were allowed to grow to a volume of 100 mm^3, and then the animals were randomly divided into several groups. For S24 tumor-bearing mice, each group of five mice was treated with either vehicle or KTC1101 (100 mg/kg, PO). Tumor size was measured every 3 d or 4 d until the endpoint. For B16 tumor-bearing mice, each group of five mice was treated with either vehicle, KTC1101 (50 or 100 mg/kg, PO), anti-PD-1 antibody (250 μg per mouse, clone RPM1-14, Bio X cell, IP), or KTC1101 and anti-PD-1 antibody. Tumor size was monitored every other day, and the tumor was harvested at indicated time points for analysis of tumor-infiltrating lymphocytes. The tumor volume was calculated using the following formula: length × width × height/2.

[1] = test system: PC3 cells gene expression; assay: RNA-Seq (DEGs, GSEA) of PC3 cells; conditions: 25 nM, 48 h
Tregs = assay: T cell suppression assay (CFSE); format: cell-based, mouse
Experimental: Spleens from naive mice were isolated and ground through 70-μm filters to generate a single-cell suspension. After RBC lysis, single-cell suspensions were stained with CD3, CD8, CD4, CD25 or CD127 antibodies. Viable CD8^+ T cells (CD3^+CD8^+), CD4^+ T cells (CD3^+CD4^+), and Tregs (CD3^+CD4^+CD25^+CD127^low/−) from single-cell suspensions were sorted by FACS. Then T cells were labelled with […] in pre-warmed PBS for 10 min at 37 °C. The CFSE-labelled T cells were seeded in 96-well plates pre-coated with 10 μg/mL CD3 and 1 μg/mL CD28 antibodies and cultured in 1640 media with 10% FBS, 1 mM Sodium Pyruvate (Thermo, 11,360,070), 50 μM β-ME and 100 IU/mL IL2, as well as different concentrations of KTC1101 or solvent control. After 72 h, cells were harvested and the CFSE signal was measured by flow cytometry. Cell growth rate was calculated by the percentage of live, proliferated cell number at each drug concentration vs. solvent control.

HSC2 tumors = assay: HSC2 xenograft in BALB/c nude mice; format: in vivo, mouse; conditions: 100 mg/kg PO
Experimental: BALB/c nude, NSG, and C57BL/6J mice were obtained from Tianjin Medical University. The housing temperature was controlled, ranging from 20.5–24 °C, and humidity was monitored but not controlled ranging from 30–70%. The 12-h daily light cycle was from 06:00 to 18:00. To generate a murine subcutaneous tumor model, PC3 and HSC2 cells were subcutaneously injected into the right lateral flank of 4- to 5-week-old male BALB/c nude mice. TMD8, CAL33, and S24 cells were subcutaneously injected into the right lateral flank of 4- to 5-week-old male NSG mice. When tumors reached a volume of 300–500 mm^3, they were excised, diced into 2 mm × 2 mm × 2 mm pieces, and implanted into the right flanks of BALB/c nude or NSG mice. Tumors were allowed to grow to a volume of 100 mm^3, and then the animals were randomly divided into several groups. Each group of five mice was treated with either vehicle or KTC1101 (25, 50, or 100 mg/kg, PO). Tumor size was measured every 3 d or 4 d until the endpoint. The tumor volume was calculated using the following formula: length × width × height/2. At the end of the experimental period, mice were euthanized by overdosing on pentobarbital sodium, and the tumors were removed. Tumor tissue was formalin-fixed and paraffin-embedded for histological analysis.

Compound: COc1cc(N)cc2c1nc(C(F)F)n2-c1nc(N2CCCOCC2)nc(N2CCOCC2)n1 [KTC1101, 2-(difluoromethyl)-4-methoxy-1-(4-morpholino-6-(1,4-oxazepan-4-yl)-1,3,5-triazin-2-yl)-1H-benzo[d]imidazol-6-amine]
- time until relapse was detected (S24 tumors): 18 days
- expression of genes associated with the PI3K/AKT/mTOR pathway (GSEA) [1]: reduction in the expression of genes
- selective inhibition of Treg proliferation over CD8^+ T cells (Tregs): over a tenfold greater extent than CD8^+ T cells
- IC50 (Tregs; Mus musculus, T-cell, 72 h, read-out: IC50 proliferation): 2.58 nM
- tumor growth (HSC2 tumors): Tumor growth arrest
